20 molecules from ChEMBL document CHEMBL5518178 (Eur J Med Chem, 2024) can be followed below.

The test system of data set [1] is MGC-803. In words: Antiproliferative activity against human MGC-803 cells assessed as inhibition of cell growth incubated for 48 hrs by MTT assay. The conditions noted are these: MGC-803, 48 h. The format is functional, cell-based.
A further data set concerns HCT-116. In words: Antiproliferative activity against human HCT-116 cells assessed as inhibition of cell growth incubated for 48 hrs by MTT assay. The format is functional, cell-based. Particulars: HCT-116, 48 h.
For the next data set, the system named is KYSE-30. Description: Antiproliferative activity against human KYSE-30 cells assessed as inhibition of cell growth incubated for 48 hrs by MTT assay. The format is functional, cell-based. The conditions noted are these: KYSE-30, 48 h.
The test system of data set [2] is MGC-803. Description: Antitumor activity against human MGC-803 cells xenografted in BALB/c-nude mouse assessed as tumor growth inhibition at 30 mg/kg/day, ip administered for 18 days relative to control. Particulars: MGC-803, 432 h, time 18 day, read-out: TGI. The format is functional.
Data set [3] has as its system MGC-803. Description: Antitumor activity against human MGC-803 cells xenografted in BALB/c-nude mouse assessed as tumor growth rate at 30 mg/kg/day, ip administered for 18 days relative to control. In kind it is functional. Particulars: time 18 day.
In data set [4] the test system is MGC-803. Description: Antitumor activity against human MGC-803 cells xenografted in BALB/c-nude mouse assessed as tumor weight at 30 mg/kg/day, ip administered for 18 days (reference value: 0.656 g). In kind it is functional. Particulars: time 18 day.
Data set [5] in a line: Toxicity in BALB/c-nude mouse xenografted with human MGC-803 cells assessed as change in body weight at 30 mg/kg/day, ip administered for 18 days. The format is organism-based. The conditions noted are these: in vivo, 432 h, time 18 day.
The nature of data set [6]: Toxicity in BALB/c-nude mouse xenografted with human MGC-803 cells assessed as abnormal behaviour at 30 mg/kg/day, ip administered for 18 days. In kind it is organism-based. Particulars: in vivo, 432 h, time 18 day.

Take `CN1CCN(c2cc(=O)oc3ccccc23)CC1`: the half-inhibitory concentration (IC50) in the data set on MGC-803 [1], in the data set on HCT-116 and in the data set with KYSE-30 was over 20 µM in each case.
For `COc1ccc2c(c1)CCN2c1cc(=O)oc2ccccc12`, the figures for the half-maximal inhibitory concentration (IC50) in the data set on MGC-803 [1], with HCT-116 and with KYSE-30 were 0.12 µM, 0.16 µM and 0.15 µM, respectively.
The matching figures for `Cc1ccc2c(c1)CCCN2c1cc(=O)oc2ccccc12`: 0.42 µM, 0.45 µM and 0.4 µM.
Regarding `Cc1ccc2c(c1)CCN2c1cc(=O)oc2ccccc12`, the half-inhibitory concentration (IC50) with MGC-803 [1] came out at 2.09 µM; with HCT-116, 2.28 µM; with KYSE-30, 1.97 µM.
The matching figures for `COc1ccc2c(c1)NC(=O)CN2c1cc(=O)oc2ccccc12`: 0.012 µM, 0.038 µM and 0.034 µM.
As to `COC1CCN(c2cc(=O)oc3ccccc23)CC1`, the IC50 in the data set with MGC-803 [1], in the data set with HCT-116 and in the data set on KYSE-30 was over 20 µM each time.
Regarding `COc1ccc(N2CCN(c3cc(=O)oc4ccccc34)CC2)cc1`, the IC50 in the data set with MGC-803 [1] was 18.1 µM; in the data set with HCT-116 it was 18.7 µM; with KYSE-30, over 20 µM.
The matching figures for `O=c1cc(N2CCCc3cc(O)ccc32)c2ccccc2o1`: 0.88 µM, 0.91 µM and 0.87 µM.
The matching figures for `O=c1cc(N2CCc3ccccc32)c2ccccc2o1`: 1.29 µM, 2.98 µM and 2.18 µM.
For `O=c1cc(N2CCCc3ccccc32)c2ccccc2o1`, the IC50 came out at 0.67 µM in the data set with MGC-803 [1], 0.73 µM with HCT-116 and 0.68 µM in the data set with KYSE-30.
Turning to `COc1cc2c(c(OC)c1OC)-c1ccc(OC)c(=O)cc1[C@@H](NC(C)=O)CC2` [COLCHICINE], the IC50 in the data set with MGC-803 [1] turned out to be 0.041 µM; in the data set with HCT-116 it was 0.055 µM; in the data set with KYSE-30 it was 0.068 µM.
For `O=C(c1cc2ccccc2oc1=O)N1CCc2cc(Br)ccc21` the same measures were 13.1 µM, 14.2 µM and 17.1 µM.
`O=C(c1cc2ccccc2oc1=O)N1CCCc2cc(Cl)ccc21`: the concentration for half-maximal inhibition (IC50) in the data set with MGC-803 [1] worked out at 9.99 µM; in the data set with HCT-116 it was 11.9 µM; in the data set with KYSE-30 it was 13.2 µM.
In the case of `COc1ccc(/C=C\c2cc(OC)c(OC)c(OC)c2)cc1O` [COMBRETASTATIN A4], the inhibition in vivo at 30 mg/kg/day in the data set on MGC-803 [2] was 58.5%. Besides, the Activity in the data set on MGC-803 [3] is on record as 38%; in the data set with MGC-803 [4], 0.272 g; in data set [5], “Non-Toxic”; in data set [6], “Non-Toxic”.
Turning to `COc1ccc2c(c1)CCCN2C(=O)c1cc2ccccc2oc1=O`, the IC50 in the data set with MGC-803 [1] came to 4.14 µM; with HCT-116 it was 5.58 µM; in the data set with KYSE-30, 7.19 µM.
Regarding `O=c1cc(N2CCCc3cc(Br)ccc32)c2ccccc2o1`, the IC50 with MGC-803 [1] came to 1.19 µM; with HCT-116 it was 1.47 µM; with KYSE-30, 1.52 µM.
For `O=c1cc(N2CCCC2)c2ccccc2o1` the same measures were over 20 µM, over 20 µM and over 20 µM.
The matching figures for `COc1ccc2c(c1)CCN2C(=O)c1cc2ccccc2oc1=O`: 7.41 µM, 9.44 µM and 9.08 µM.
As for `O=c1cc(N2CCOCC2)c2ccccc2o1`, the IC50 in the data set on MGC-803 [1], in the data set on HCT-116 and with KYSE-30 was over 20 µM throughout.
`CC1CCN(c2cc(=O)oc3ccccc23)CC1`: the IC50 with MGC-803 [1], with HCT-116 and with KYSE-30 was over 20 µM each time.
